Legend:
[1] = tested on: HepG2 (liver cancer) cells; experiment: Real-time PCR Diabetes Array; format: cell-based; conditions: 100 μM Q10
Protocol: The treatment was initiated on 1×10^5 cells per well, following the procedure utilized in the PaCa2 cells (above, Examples 9-11). However, the total amount of RNA that was extracted from these samples was lower than expected. Reverse transcription is normally done using 1 μg of total RNA (determined by measurement at 260 nm). The maximum volume that can be used per reverse transcription is 8 μl.

[2] = tested on: Lactate Dehydrogenase (LDH); experiment: Western blot, Lactate Dehydrogenase levels; format: cell-based, human
Protocol: The samples were processed and run on a 4-12% Bis-Tris Novex NuPAGE gel as described above. The gels were run, transferred and stained essentially as described above.
After transfer each blot was dried for 15-20 minutes, activated with methanol for 5 seconds, washed with water for 5 minutes, and TBST for 15 minutes. The blots were blocked for 1 hour with 5% blocking reagent in TBS-T at room temperature and then washed 3 times with TBS-T (1X−15′; 2X5′ each) and probed with the primary antibody for Lactate Dehydrogenase (abcam ab2101; polyclonal) in 5% BSA (at 1:1000 dilutions) by incubation overnight at 4 deg C. with shaking. After the overnight incubation with primary antibody for Lactate Dehydrogenase, the blots were washed 3 times with TBS-T (1X−15′; 2X5′ each) and probed with the secondary antibody (rabbit antigoat; 1:10,000 dilution) for 1 h at room temperature. After 1 h of incubation with secondary antibodies, the blots were washed 3 times with TBS-T (1X−15′; 2X5′ each) and then incubated with ECF reagent for 5 mins and then each blot scanned with 5100 Fuji Laser scanner at 25 uM resolution, 16 bit, green laser, at 400V and at 500 V. […]
The levels of LDH and PDH were determined by probing the blots successively with primary antibodies for LDH and PDH, essentially as described above. […]

[3] = tested on: Succinate Dehydrogenase (SDH) Subunit B; experiment: Western blot, Succinate Dehydrogenase B in mitochondrial preparations; format: cell-based; conditions: mitochondrial preparations of cancer cells
Protocol: The above blots were stripped by incubating for 30 minutes with methanol, followed by two 10 minute washes with TBS-T, then 30 minutes of incubation with Stripping buffer at 50 deg C., and followed by two washes with 100 ml or more of TBS-T for 30′ each. The blots were scanned in laser scanner to check for complete stripping. The blots were activated with methanol for 5 seconds, washed with water for 5 minutes, and TBST for 15 minutes. The blots were blocked for 1 hour with 5% blocking reagent in TBS-T at room temperature and then washed 3 times with TBS-T (1X−15′; 2X5′ each) and probed with the primary antibody for PKM2, SDHB or SDHC in 5% BSA in TBS-T by incubation overnight at 4 deg C. with gentle shaking. The primary antibody for SDHC (ABNOVA H00006391-M12; antimouse) was at 1:500 dilution. The primary antibody for SDHB was from Abcam ab4714-200; antimouse; at 1:1000 dilution. The primary antibody for Pyruvate Kinase M2 (PKM2) was from Novus Biologicals H00005315-D0IP; antirabbit; at 1:500 dilution. After incubation with primary antibodies, the membranes were washed 3 times with TBS-T (1X−15′; 2X5′ each) and probed with the secondary antibody (SDHB & C antimouse; and PKM2 antirabbit; 1:10,000 dilution) for 1 h on the orbital tilting shaker at room temperature. […]

[4] = tested on: HAEC, MCF-7, HepG2 and PC-3 cell lines; experiment: OCR and ECAR, SeaHorse XF analyzer (data not shown); format: cell-based, human; conditions: absence and/or presence of stressors (hyperglycemia, hypoxia, lactic acid)
Protocol: (SeaHorse Biosciences Inc, North Billerica, Mass.).
A similar comparison of OCR and ECAR values (data not shown) were determined in numerous other normal and cancer cells lines, including: HAEC (normal human aortic endothelial cells), MCF-7 (breast cancer), HepG2 (liver cancer) and highly metastatic PC-3 (prostate cancer) cell lines. […] Thus, the overall effect of CoQ10 in the treatment of cancer, including cell death, is an downstream effect of its collective influence on proteomic, genomic, metabolomic outcomes in concert with shifting of the cellular bioenergetics from glycolysis to mitochondrial OXPHOS.

[5] = rats; Bhagavan et al.; cited from earlier work

With COC1=C(OC)C(=O)C(C/C=C(\C)CC/C=C(\C)CC/C=C(\C)CC/C=C(\C)CC/C=C(\C)CC/C=C(\C)CC/C=C(\C)CC/C=C(\C)CC/C=C(\C)CCC=C(C)C)=C(C)C1=O [Q10, Coenzyme Q10] the PPARGC1A regulation ([1]; HepG2, 48 hours) was “normalized or were slightly upregulated”, the PRKAA1 regulation ([1]; HepG2, 48 hours) was “normalized or were slightly upregulated” and the “genes regulated in the Diabetes Arrays” value ([1]; HepG2 cells, genes: PPARGC1A, PRKAA1, SNAP25) was “List of genes regulated in the Diabetes Arrays when HepG2 cells”. For the same compound, the LDH expression ([2]; cancer) was “reduced Lactate Dehydrogenase (LDH) expression in cancer”, the LDH expression ([2]; normal cells) was “minimal effect on normal cells” and the SDH protein levels [3] was “increase SDH protein levels”. For the same compound, the “OCR and ECAR values” [4] was “shift in OCR and ECAR values representative of values observed in a normal cells under normal physiological conditions” and the “orally-administered CoQ10 absorbed” value [5] was 2-3%.

Reference: patent US10519504B2, “Methods for treatment of oncological disorders using epimetabolic shifters, multidimensional intracellular molecules, or environmental influencers” (Berg LLC, priority 2009, dated 2019)
